{
  "source": "ChEMBL document CHEMBL6092147",
  "about": "“Design of inhibitors of SARS-CoV-2 papain-like protease deriving from GRL0617: Structure-activity relationships” (Bioorg Med Chem, 2024)",
  "data": [
    {"biological_target": "T1, Replicase polyprotein 1ab (Severe acute respiratory syndrome coronavirus 2, UniProt P0DTD1)", "assay": "Inhibition of SARS-CoV-2 papain-like protease (PLpro) by enzymatic assay", "units": {"IC50": "nM"}, "values": [
      {"smiles": "CCn1ccc(-c2cc(-c3cnn(CCOC)c3)cc([C@@H](C)NC(=O)c3cc(OCCN(C)C)ccc3C)c2)n1", "IC50": 160}
    ]},
    {"biological_target": "T1, Replicase polyprotein 1ab", "assay": "Binding affinity to SARS-CoV-2 papain-like protease extracted from Escherichia coli BL21 (DE3) cells assessed as inhibition constant by SPR analysis", "units": {"Ki": "nM"}, "values": [
      {"smiles": "Cc1ccc(OCCN(C)C)cc1C(=O)N[C@H](C)c1cc(-c2cnn(C)c2)cc(-c2cnn(C(C)C)c2)c1", "Ki": 40},
      {"smiles": "Cc1ccc(OCCN(C)C)cc1C(=O)N[C@H](C)c1cc(-c2cnn(C)c2)cc(-c2cnn(C3CC3)c2)c1", "Ki": 30},
      {"smiles": "COCn1cc(-c2cc(-c3cnn(C(F)F)c3)cc([C@@H](C)NC(=O)c3cc(OCCN(C)C)ccc3C)c2)cn1", "Ki": 80},
      {"smiles": "Cc1ccc(OCCN(C)C)cc1C(=O)N[C@H](C)c1cc(-c2cnn(C)c2)cc(-c2cnn(C(F)F)c2)c1", "Ki": 30},
      {"smiles": "Cc1ccc(OCCN(C)C)cc1C(=O)N[C@H](C)c1cc(-c2cnn(C)c2)cc(-c2cncs2)c1", "Ki": 30},
      {"smiles": "Cc1ccc(OCCN(C)C)cc1C(=O)N[C@H](C)c1cc(-c2cnn(CF)c2)cc(-c2ccn(C)n2)c1", "Ki": 30},
      {"smiles": "Cc1ccc(OCCN(C)C)cc1C(=O)N[C@H](C)c1cc(-c2cnn(C)c2)cc(-c2ccn(C)n2)c1", "Ki": 40},
      {"smiles": "Cc1ccc(OCCN(C)C)cc1C(=O)N[C@H](C)c1cc(-c2cnn(CCN3CCOCC3)c2)cc(-c2ccn(C)n2)c1", "Ki": 40}
    ]},
    {"biological_target": "T1, Replicase polyprotein 1ab", "assay": "Inhibition of SARS-CoV2 PLpro extracted from Escherichia coli using Z-RLRGG-AMC as substrate incubated for 30 mins by fluorescence based analysis", "units": {"IC50": "nM"}, "values": [
      {"smiles": "Cc1ccc(NC(=O)C2CN(C)CCN2)cc1C(=O)N[C@H](C)c1cccc2ccccc12", "note": "(mixture of isomers)", "IC50": 1700},
      {"smiles": "Cc1ccc(NC(=O)[C@@H](N)CN)cc1C(=O)N[C@H](C)c1cccc2ccccc12", "IC50": 1600},
      {"smiles": "Cc1ccc(NC(=O)C2CN(C)C2)cc1C(=O)N[C@H](C)c1cccc2ccccc12", "IC50": 1550},
      {"smiles": "Cc1ccc(NC(=O)N2CCCN(C)CC2)cc1C(=O)N[C@H](C)c1cccc2ccccc12", "IC50": 1500},
      {"smiles": "Cc1ccc(Nc2ccncc2)cc1C(=O)N[C@H](C)c1cccc2ccccc12", "IC50": 1700},
      {"smiles": "Cc1ccc(NCC2CCNC2)cc1C(=O)N[C@H](C)c1cccc2ccccc12", "note": "(mixture of isomers)", "IC50": 1500},
      {"smiles": "Cc1ccc(NC(=O)[C@@H](N)CCCCN)cc1C(=O)N[C@H](C)c1cccc2ccccc12", "IC50": 1700},
      {"smiles": "Cc1ccc(NC(=O)N2CCN(C)CC2)cc1C(=O)N[C@H](C)c1cccc2ccccc12", "IC50": 1600},
      {"smiles": "CNCCCNc1ccc(C)c(C(=O)N[C@H](C)c2cccc3ccccc23)c1", "IC50": 1500}
    ]},
    {"biological_target": "T1, Replicase polyprotein 1ab", "assay": "Binding affinity to SARS-CoV-2 3CL protease extracted from Escherichia coli BL21 (DE3) Rosetta cells assessed as dissociation constant", "units": {"Kd": "nM"}, "values": [
      {"smiles": "CCC(C(=O)Nc1cc(NC2CCOC2)ccc1C)n1cc(Br)cc2nc(SCc3ccc(F)cc3)nc1-2", "note": "(racemic)", "Kd": 1400},
      {"smiles": "CCC(C(=O)Nc1cc(NC2COC2)ccc1C)n1cc(F)cc2nc(SCc3ccc(F)cc3)nc1-2", "note": "(racemic)", "Kd": 400}
    ]},
    {"biological_target": "T1, Replicase polyprotein 1ab", "assay": "Binding affinity to SARS-CoV-2 3CL protease assessed as dissociation constant by SPR analysis", "units": {"Kd": "nM"}, "values": [
      {"smiles": "CCC(C(=O)Nc1cc(NC2CNC2)ccc1C)n1cc(Br)cc2nc(SCc3ccc(F)cc3)nc1-2", "note": "(racemic)", "Kd": 100},
      {"smiles": "CCC(C(=O)Nc1cc(NC2CCNC2)ccc1C)n1cc(Cl)cc2nc(SCc3ccc(F)cc3)nc1-2", "note": "(racemic)", "Kd": 100},
      {"smiles": "CCC(C(=O)Nc1cc(NC2CNC2)ccc1C)n1cc(Cl)cc2nc(SCc3ccc(F)cc3)nc1-2", "note": "(racemic)", "Kd": 100},
      {"smiles": "CCC(C(=O)Nc1cc(NC2CNC2)ccc1C)n1cc(F)cc2nc(SCc3ccc(F)cc3)nc1-2", "note": "(racemic)", "Kd": 270},
      {"smiles": "CCC(C(=O)Nc1cc(NC2CCNC2)ccc1C)n1cccc2nc(SCc3ccc(F)cc3)nc1-2", "note": "(racemic)", "Kd": 250},
      {"smiles": "CCC(C(=O)Nc1cc(NC2CCNCC2)ccc1C)n1cc(Br)cc2nc(SCc3ccc(F)cc3)nc1-2", "note": "(racemic)", "Kd": 170}
    ]},
    {"biological_target": "T1, Replicase polyprotein 1ab", "assay": "Inhibition of N-terminal 6-His-tagged SARS-CoV-2 PLpro BetaCoV/Wuhan/WIV04/2019 (1524 to 1883 residues) extracted from Escherichia coli BL21 (DE3) cells using Dabcyl-KTSAVLQ/SGFRKME as substrate pretreated for 30 mins followed by substrate addition measured for 1 hr by TR-FRET analysis", "units": {"IC50": "nM"}, "values": [
      {"smiles": "C[C@H](c1cccc2ccccc12)N1CCC(C(=O)NCc2ccc(S(N)(=O)=O)cc2)CC1", "IC50": 600}
    ]},
    {"biological_target": "T1, Replicase polyprotein 1ab", "assay": "Inhibition of SARS-CoV-2 wild type PLpro extracted from Escherichia coli Rosetta 2(DE3) cells by fluorescence based analysis", "units": {"IC50": "nM"}, "values": [
      {"smiles": "C[C@H](c1cccc2ccccc12)N1CCC(C(=O)NCc2cc(F)cc(NC(=O)N3CCN(C)CC3)c2)CC1", "IC50": 990}
    ]},
    {"biological_target": "T1, Replicase polyprotein 1ab", "assay": "Inhibition of SARS-CoV-2 3CL protease by FRET assay", "units": {"IC50": "nM"}, "values": [
      {"smiles": "CCC(C(=O)Nc1cc(NC2CNC2)ccc1C)n1cc(Br)cc2nc(SCc3ccc(F)cc3)nc1-2", "note": "(racemic)", "IC50": 70},
      {"smiles": "CCC(C(=O)Nc1cc(NC2CCNC2)ccc1C)n1cc(Cl)cc2nc(SCc3ccc(F)cc3)nc1-2", "note": "(racemic)", "IC50": 70},
      {"smiles": "CCC(C(=O)Nc1cc(NC2CNC2)ccc1C)n1cc(Cl)cc2nc(SCc3ccc(F)cc3)nc1-2", "note": "(racemic)", "IC50": 90},
      {"smiles": "CCC(C(=O)Nc1cc(NC2CNC2)ccc1C)n1cc(F)cc2nc(SCc3ccc(F)cc3)nc1-2", "note": "(racemic)", "IC50": 200},
      {"smiles": "CCC(C(=O)Nc1cc(NC2CCNCC2)ccc1C)n1cc(Br)cc2nc(SCc3ccc(F)cc3)nc1-2", "note": "(racemic)", "IC50": 50}
    ]},
    {"biological_target": "T1, Replicase polyprotein 1ab", "assay": "Inhibition of N-terminal 6His-tagged SARS-CoV-2 wild type PLpro extracted from Escherichia coli BL21 (DE3) cells incubated for 60 mins by FRET assay", "units": {"IC50": "nM"}, "values": [
      {"smiles": "COc1cc(CNC(=O)C2CCN(C(C)c3c(OC)ccc4ccccc34)CC2)ccn1", "note": "(racemic)", "IC50": "> 98000"},
      {"smiles": "COc1cc(CNC(=O)C2CCN(C(C)c3c(C)sc4ccccc34)CC2)ccn1", "note": "(racemic)", "IC50": "> 98000"},
      {"smiles": "CCOc1ccc2ccccc2c1C(C)N1CCC(C(=O)NCc2ccnc(OC)c2)CC1", "note": "(racemic)", "IC50": "> 98000"}
    ]},
    {"biological_target": "T1, Replicase polyprotein 1ab", "assay": "Inhibition of His-tagged SARS-CoV-2 papain-like protease (PLpro) incubated for 30 mins by FRET assay", "units": {"IC50": "nM"}, "values": [
      {"smiles": "C[C@H](c1cccc2ccccc12)N(C)Cc1ccc(OCC(N)=O)cc1", "IC50": 2840}
    ]},
    {"biological_target": "T1, Replicase polyprotein 1ab", "assay": "Inhibition of SARS-CoV-2 wild type PLpro (1563 to 1878 residues) extracted from Escherichia coli Rosetta 2 (DE3) cells by Fluorescence polarization assay", "units": {"IC50": "nM"}, "values": [
      {"smiles": "COc1cc(CNC(=O)C2CC3(C2)CN([C@H](C)c2cccc4ccccc24)C3)ccn1", "IC50": 5400},
      {"smiles": "COc1cc(CNC(=O)C2CCN(C(C)c3cccc4ccccc34)CC2)ccn1", "note": "(racemic)", "IC50": 1100},
      {"smiles": "COc1cc(CNC(=O)C2CN(C(C)c3cccc4ccccc34)C2)ccn1", "note": "(racemic)", "IC50": 27300}
    ]},
    {"biological_target": "T1, Replicase polyprotein 1ab", "assay": "Binding affinity to SARS-CoV-2 Main protease assessed as inhibition constant by SPR analysis", "units": {"Ki": "nM"}, "values": [
      {"smiles": "Cc1ccc(OCCN(C)C)cc1C(=O)N[C@H](C)c1cc(-c2cccs2)cc(-c2cccs2)c1", "Ki": 10},
      {"smiles": "CCn1ccc(-c2cc(-c3cnn(CCOC)c3)cc([C@@H](C)NC(=O)c3cc(OCCN(C)C)ccc3C)c2)n1", "Ki": 30},
      {"smiles": "Cc1ccc(OCCN(C)C)cc1C(=O)N[C@H](C)c1cc(-c2cnn(C)c2)cc(-c2cnn(C)c2)c1", "Ki": 30}
    ]},
    {"biological_target": "T1, Replicase polyprotein 1ab", "assay": "Inhibition of SARS-CoV-2 PLpro using Ubiquitin-AMC as substrate by enzymatic assay", "units": {"IC50": "nM"}, "values": [
      {"smiles": "Cc1ccc(N)cc1CN[C@H](C)c1cccc2ccccc12", "IC50": 41100},
      {"smiles": "CC(=O)Nc1ccc(C)c(C(=O)NC(C)c2cccc3ccccc23)c1", "note": "(stereo not given)", "IC50": 11000}
    ]},
    {"biological_target": "T1, Replicase polyprotein 1ab", "assay": "Inhibition of SARS-CoV-2 3CL protease extracted from Escherichia coli BL21 (DE3) Rosetta cells using DabcylKNSTLQSGLRKE-Edan as substrate preincubated for 60 mins followed by substrate addition and measured after 20 mins by FRET assay", "units": {"IC50": "nM"}, "values": [
      {"smiles": "CCC(C(=O)Nc1cc(NC2CCOC2)ccc1C)n1cc(F)cc2nc(SCc3ccc(F)cc3)nc1-2", "note": "(racemic)", "IC50": 1860},
      {"smiles": "CCC(C(=O)Nc1cc(NC2CCOC2)ccc1C)n1cc(Br)cc2nc(SCc3ccc(F)cc3)nc1-2", "note": "(racemic)", "IC50": 500},
      {"smiles": "CCC(C(=O)Nc1cc(NC2COC2)ccc1C)n1cccc2nc(SCc3ccc(F)cc3)nc1-2", "note": "(racemic)", "IC50": 300},
      {"smiles": "CCC(C(=O)Nc1cc(NC2CCOCC2)ccc1C)n1cc(F)cc2nc(SCc3ccc(F)cc3)nc1-2", "note": "(racemic)", "IC50": 1400},
      {"smiles": "CCC(C(=O)Nc1cc(NC2COC2)ccc1C)n1cc(F)cc2nc(SCc3ccc(F)cc3)nc1-2", "note": "(racemic)", "IC50": 400},
      {"smiles": "CCC(C(=O)Nc1cc(NC2CCOC2)ccc1C)n1cc(Cl)cc2nc(SCc3ccc(F)cc3)nc1-2", "note": "(racemic)", "IC50": 160},
      {"smiles": "CCC(C(=O)Nc1cc(NC2CCOCC2)ccc1C)n1cccc2nc(SCc3ccc(F)cc3)nc1-2", "note": "(racemic)", "IC50": 600},
      {"smiles": "CCC(C(=O)Nc1ccccc1C)n1cc(F)cc2nc(SCc3ccc(F)cc3)nc1-2", "note": "(racemic)", "IC50": 5090}
    ]},
    {"biological_target": "T1, Replicase polyprotein 1ab", "assay": "Inhibition of SARS-CoV-2 papain-like protease (PLpro) by FRET analysis", "units": {"IC50": "nM"}, "values": [
      {"smiles": "Cc1ccc(OCCN(C)C)cc1C(=O)N[C@H](C)c1cc(-c2cccs2)cc(-c2cccs2)c1", "IC50": 60}
    ]},
    {"biological_target": "T1, Replicase polyprotein 1ab", "assay": "Inhibition of C-terminal His-tagged SARS-CoV-2 papain-like protease (PLpro) (1564 to 1876 residues) extracted from Escherichia coli BL21 (DE3) cells using Dabcyl-KTSAVLQ/SGFRKME as substrate incubated for 60 mins by FRET assay", "units": {"IC50": "nM"}, "values": [
      {"smiles": "C[C@H](c1cccc2ccccc12)N(C)Cc1ccc2cccc(O)c2n1", "IC50": "> 20000"}
    ]}
  ]
}
